Measured values from patent publication US12600742B2, “Markers, conjugates, compositions and methods for hypoxia imaging, mapping, and therapy” (WWIKY BIOSCIENCES INC., priority 2017, dated 2026).

Key:
[1] = test system: FaDu cells; experiment: Crystal violet staining (CVS) assay; format: cell-based, human
Procedure: FaDu cells (3000 cells/well) were seeded on 96-well microtitre plates and were incubated overnight at 37° C. with 5% CO2 to get attached to the surface. Next day, the cells were treated with increasing doses of drug (1-100 μM) and the plates were incubated under normoxic (20% O2) and hypoxic (0.1% O2) conditions for 72 hours. Culture medium (DMEM and low glucose DMEM) without cells was set for background, according to the experimental set up. After the required incubation period, the media was aspirated, and the plates were allowed to dry for a few minutes followed by addition of crystal violet solution for 20 minutes in order to stain the cells. Subsequently, the dye was discarded, plates were washed with water and let to dry overnight. Methanol (150 μL) was added to the wells and incubated for 20 minutes, so as to dissolve the crystals. Absorbance of the samples was measured spectrophotometrically using an ELISA plate reader at a wavelength of 520 nm. The absorbance of background wavelength (media only) was subtracted from the other absorbance results.
FIG. 10 depicts hypoxic selective cytotoxicity of A-TPZ. […] In CVS assay (i), FaDu cells (3000 cells/well) were seeded on 96 well plates and were incubated overnight to adhere. The cells were then treated with increasing doses of A-TPZ and the plates were exposed to both normoxic (20% O2) and hypoxic (0.1% O2) conditions for 72 hours. Culture medium (DMEM) without cells was set for background. Media was aspirated post-treatment followed by addition of crystal violet solution to stain the cells. Crystals were dissolved using methanol and absorbance of the samples was measured spectrophotometrically. Error bars represent the standard error of the mean. In CFA, (ii), FaDu cells (optimum density-ranging from 300 to 3000 cells) were seeded on 60 mm plates and were incubated overnight to adhere. Next day, the cells were treated with increasing A-TPZ doses and the plates were exposed to both normoxic (20% O2) and hypoxic (0.5% O2) conditions for 24 hours. […] Colonies were stained with crystal violet solution and counted. […]

[2] = test system: FaDu cells; experiment: Hypoxia-selective sub-cellular localization of A-TPZ, click chemistry; format: cell-based, human
Procedure: FaDu cells (˜0.5 million) were seeded on coverslips in 30 mm dishes and were incubated overnight at 37° C. with 5% CO2 to get attached to the surface. Cells were then treated with increasing concentrations (1-30 μM) of drug (reconstituted in DMSO at concentration of 0.5 M) and were incubated under normoxic and hypoxic (<0.1% O2) conditions for 24 hours. Post-treatment, cells were fixed with 2% paraformaldehyde for 20 minutes followed by blocking and permeabilization in 1% BSA and 0.1% Triton-X-100 for 20 minutes. Click reaction was performed in the presence of Alexa 594 alkyne using the Click-iT Cell Reaction Buffer Kit (Thermo Fisher Scientific, no: C10269), according to manufacturer's protocol. Nuclei were counterstained with Hoechst, and images were obtained using confocal microscopy.
FaDu cells were seeded on coverslips and were incubated overnight to adhere. The cells were then treated with increasing doses of A-TPZ for 24 hours under normoxic and hypoxic (<0.1% O2) conditions. Cells were fixed in 2% paraformaldehyde and Click chemistry was performed at room temperature for 30 minutes using Alexa 594 alkyne. Nuclei were counterstained with Hoechst, and images were obtained using confocal microscopy.

[3] = test system: human and murine cancer cell lines; details: literature; cited from earlier work
[4] = test system: FaDu tumors; experiment: In vivo evaluation of radiosensitization therapy by IAZA using click mapping; parameters: species or system Nu/Nu mice
Procedure: Tissue sections were air dried for 25 minutes, fixed for 5 minutes in −20° C. acetone; air dried 25 minutes and blocked in PBS with 1% BSA for 20 minutes. Sections were incubated with primary antibodies for small vessel endothelium [1:100 rabbit anti-CD34 (abcam)] or hypoxia [1:100 rabbit anti-pimonidazole Hypoxyprobe)] for 2 hours at room temperature, followed by 3 five minute washes in 1×PBS. The secondary antibody (Alexafluor 647 goat anti-rabbit 1:1000 Molecular Probes with 1×DAPI to stain DNA) was incubated for 30 minutes at […] room temperature in the dark, followed by 3 five minute washes with 1×PBS. The Click-IT reaction cocktail was incubated with the sections for 30 minutes. Sections were washed 5 times with 1×PBS for 5 minutes and mounted using Mowiol 4-88 (Calbiochem) mounting media. Slides were stored at 4° C. until imaged. Images were obtained by tile scan with a Plan-Apochromat 10X/0.45 numerical aperture lens on a Zeiss 710 confocal microscope using Zen 2011 software. […]
Male Nu/Nu mice (Charles River Laboratories) aged 6 weeks were used and cared for according to the CCAC guidelines. […] The tumors were measured daily until the volume reached 0.4 cm3. […] Temperature and respiration were monitored and recorded every five minutes throughout the scans (Small animal Monitoring and Gating System, SA Instruments Inc.). […] Animals were monitored and tumors measured for up to 16 days. […]

[5] = test system: FaDu cells; experiment: Comparison of hypoxia selective uptake of ACN and Pimonidazole in vitro; format: cell-based, human
Procedure: FaDu cells were grown on coverslips (as described above) and treated simultaneously with 100 μM ACN and 100 μM Pimonidazole. The cells were subsequently exposed to normoxic (20% Oxygen), hypoxic (1% Oxygen) or anoxic (0% Oxygen) conditions for 6 hours, and fixed in 2% PFA. Standard Pimonidazole IHC was performed as described elsewhere using an Alexafluor 647 labelled secondary antibody. Click chemistry was performed as previously described using an Alexafluor 555 conjugated alkyne followed by nuclear staining with Hoechst. Mounted coverslips on glass slides were imaged as described earlier.

[6] = test system: FaDu xenograft tumors; experiment: Assessment of ACN as a hypoxia tracer in tumor-bearing mice; format: in vivo, BALB/c nude mice; details: 80 mg/Kg intraperitoneally, 2 hours post-injection
Procedure: Female BALB/c nude mice (Charles River Laboratories) aged 6 weeks were used and cared for according to the CCAC guidelines. We used a biflanked sub-cutaneous tumor model where the tumor in the left flank was untreated (control) and the tumor in the right flank served as the ‘treatment’ group. We subcutaneously injected 6×10^6 FaDu cells in 0.1 ml of sterile 0.9% NaCl into the upper right flank to form palpable tumors. The tumors were measured daily until the volume reached 10 mm3. The mice were divided into 4 groups and injected intraperitoneally in 0.15 ml 0.9% saline with: 1-80 mg/Kg ACN, 2-80 mg/Kg pimonidazole (Hypoxyprobe), 3-80 mg/Kg ACN:pimonidazole in a 1:1 ratio and 4-0.9% saline control. Mice were sacrificed 2 hours post-injection, tumors removed and frozen in OCT. Seven micron serial sections were taken of each tumor, dried and stored at −80° C.
Tissue sections were air dried for 25 minutes, fixed for 5 minutes in −20° C. acetone; air dried 25 minutes and blocked in PBS with 1% BSA for 20 minutes. Sections were incubated with primary antibodies for small vessel endothelium [1:100 rabbit anti-CD34 (abcam)] or hypoxia [1:100 rabbit anti-pimonidazole Hypoxyprobe)] for 2 hours at room temperature, followed by 3 five minute washes in 1×PBS. […]

SMILES: [N-]=[N+]=NCCOCCNc1n[n+]([O-])c2ccccc2[n+]1[O-] [A-TPZ, 3-(2-(2-Azidoethoxy)ethyl)amino-1,2,4-benzotriazine 1,4-dioxide]
- cytotoxicity under hypoxia (CVS) ([1]; 0.1% O2, 72 hours, 1-100 μM): selective cytotoxicity in low oxygen levels
- toxicity in the normoxic group (CVS) ([1]; 20% O2, 72 hours): minimal toxicity
- toxicity compared to parent compound TPZ ([1]; data not shown): slightly less toxic
- dose dependence of signal intensity ([2]; 1-30 μM, hypoxia): dose-dependent
- click fluorescence localization in hypoxic cells ([2]; hypoxia (<0.1 O2), 24 hours, 1-30 μM): selective sub-cellular localization
- click fluorescence in normoxic drug treated cells ([2]; normoxic, 24 hours): No fluorescence

SMILES: O=[N+]([O-])c1nccn1[C@@H]1O[C@H](C[125I])[C@@H](O)[C@@H]1O [IAZA]
- toxicity to cancer cell lines (reported) [3]: low toxicity
- uptake by cells (reported) [3]: selectively taken up by hypoxic cells
- effect on tumor and hypoxia, IAZA and radiation co-treated ([4]; 400 mg/Kg IAZA + single dose of 10 Gy radiation): both tumor shrinkage and reduced hypoxia
- effect on tumor hypoxia, IAZA alone ([4]; 400 mg/Kg IAZA intraperitoneally, no radiation, ACN click mapping): had no effect on hypoxia

SMILES: O=[N+]([O-])c1nccn1CC(O)CN1CCCCC1 (stereo not shown) [Pimonidazole, reference compound]
- staining detected by oxygen condition ([5]; 100 μM of each compound, 6 h): detected in oxygen deprived cells
- sub-cellular distribution of signal ([5]; hypoxic <0.1% O2 cells, 100 μM): mostly concentrated in the cytoplasm
- localization in tumor sections [6]: co-localize to hypoxic areas bordering necrotic regions
